In patent US9808434B2, “Compound for treating cancer and diabetes” (CITY OF HOPE, priority 2011, dated 2017):

Columns and labels:
[1] = tested on: CD133 sorted PBT-017 glioma cells; test: Killing of CD133 sorted PBT-017 glioma cells; assay type: cell-based; details: 0-100 μM, 4 days
Experimental: CD133 positive glioma stem cells were sorted by FACS. Unsorted cells, CD133 positive cells, and CD133 negative PBT-017 glioma cells were treated with COH-SR4 at various concentrations (0˜100 μM) for 4 days, respectively. Data were represented as a ratio to untreated control, and plotted as mean±SEM (n=12) obtained from 2˜3 experiments (FIG. 39A).

PBT-017 glioma cells = test: Combination index with chemotherapy drugs, PBT-017; assay type: cell-based
Experimental: Effects of combination of COH-SR4 and a chemotherapy drug such as TMZ, SN38, CPT-11, and 5-FU were studied by combination index (CI) theorem and plot using the method described in Chou (“Experimental Design, and Computerized Simulation of Synergism and Antagonism in Drug Combination Studies,” Pharmacological Reviews, Vol. 58, No. 3), which is incorporated herein by reference in its entirety.
COH-SR4 and a chemotherapy drug (TMZ, SN38, CPT-11, or 5-FU) were dissolved in DMSO individually, and then diluted to the appropriate concentration in the same cell culture media before applying to cells of each cell line. After 4 days, the amount of ATP present in the cell lysates were assessed using Progema's CellGlo kit. The CI of each combination of COH-SR4 and the chemotherapy drug was calculated and plotted against the concentration of COH-SR4 for each concentration of the chemotherapy drug used.

B16-F0 = test: MTT assay, B16-F0; assay type: cell-based; details: Mus musculus
Experimental: Cell density measurements were performed using a hemocytometer to count reproductive cells resistant to staining with trypan blue. Approximately 20,000 cells were plated into each well of 96-well flat-bottomed micro-titer plates. After 12 h or 24 h incubation at 37° C., medium containing either COH-SR4 (ranging 0-200 μM) or elesclomol (ranging 0-20 μM) were added to the cells. After 24 h, 48 h or 96 h incubation, 20 μL of 5 mg/mL MTT were introduced to each well and incubated for 2 h. The plates were centrifuged and medium was decanted. Cells were subsequently dissolved in 100 μl DMSO with gentle shaking for 2 h at room temperature, followed by measurement of OD570 (91).
Cells of highly aggressive mouse melanoma cell line B16-F0 or human melanoma cell line Hs600T were incubated with various doses of COH-SR4 (1, 2.5, 5, 10, 25, 50, or 100 μM). The cell viabilities after treatment of 48 hours and 96 hours were measured and summarized in FIGS. 54A and 55A, respectively. […] Data were presented as mean±Standard Deviation from two separate determinations with eight replicate each (n=16).

p38 MAPK, ERK1/2, JNK = test: MAPK/ERK signaling in melanoma cells, Western blotting; assay type: cell-based; details: 0-10 μM; 5 μM 0-24 h
Experimental: Cell or tissue proteins were extracted with cell lysis buffer (Cell Signaling Technology) and protein concentration was determined using the DC Protein Assay kit (Bio-Rad, Hercules, Calif., USA). Equal amount of proteins (˜40 μg) were loaded onto 4-15% Criterion TGX gels (Bio-Rad, Hercules, Calif.), resolved by SDS-PAGE electrophoresis, and then transferred onto nitrocellulose membranes for immunoblotting. Membranes were blocked with 5% skimmed milk in Tris-buffered saline containing 0.05% Tween 20 before incubation overnight at 4° C. with desired primary antibodies. Immuno-reactive proteins were visualized by peroxidase-labeled secondary antibodies and ECL system (Western Lightning Chemiluminescence Reagent, Perkin-Elmer, Mass., USA). […] Band intensities were quantified using a densitometer (Quantity One, Bio-Rad, Hercules, Calif.).
To investigate whether COH-SR4 affected the MAPK/ERK signaling pathway in human melanoma, the phosphorylation levels of p38 MAPK (T^180/Y^182), ERK1/2 (T^202/Y^204), and pJNK (T^183/Y^185), in A101D, A2058, SK-Mel-5, SK-MEL-28 and B16-F0 melanoma cells were examined after COH-SR4 treatment at various doses (0-10 μM) (FIG. 76A) or at a dose of 5 μM at various time points (0-24 h) (FIG. 76B). Total proteins were isolated and analyzed by Western blotting.

SK-Mel-2 = test: Colony formation assay, SK-Mel-2; assay type: cell-based, human; details: 5 μM
Experimental: Cell survival was evaluated using a standard colony-forming assay. In total, 1×10^5 cells/mL were incubated with COH-SR4 (1.5 μM or 5 μM) or elesclomol (5 μM) for 24 h, and aliquots of 50 or 100 μL were added to 60 mm size petri dishes, containing 4 mL culture medium. After 7 or 10 days, adherent colonies were fixed, stained with 0.5% methylene blue for 30 min and colonies were counted using the Innotech Alpha Imager HP (91).

A2058 cells = test: Annexin V / propidium iodide flow cytometry, A2058; assay type: cell-based, human
Experimental: Apoptosis of cells were measured based on loss of membrane integrity using Annexin V-FITC Apoptosis Detection Kit as described by the supplier (BD Biosciences Pharmingen, San Diego, Calif.), in which the early- and late-death cells were stained with Annexin V-FITC and propidium iodide. Cells were analyzed using a CyAn ADP cytometer (Beckman Coulter Inc) to quantify fluorescence. Apoptotic cells were defined as Annexin V-FITC positive.

[2] = tested on: B16-F0 and A2058 melanoma cells; test: TUNEL apoptosis assay, melanoma; assay type: cell-based; details: 24 h
Experimental: For TUNEL assay, 1×10^5 cells were grown on the cover slips for ˜12 h followed by treatment with COH-SR4 (5 μM or 10 μM) or elesclomol (5 μM) for 24 h. Apoptosis was determined by the labeling of DNA fragments with terminal deoxynucleotidyl-transferase dUTP nick-end labeling (TUNEL) assay using Promega fluorescence apoptosis detection system, and examined using Zeiss LSM 510 META laser scanning fluorescence microscope with filters 520 and 620 nm according to the protocol described previously (91). Photographs taken at identical exposure at ×400 magnification are presented.

For `O=C(Nc1cc(Cl)cc(Cl)c1)Nc1cc(Cl)cc(Cl)c1` [COH-SR4, 1,3-bis(3,5-dichlorophenyl) urea], the “killing of CD133 positive, negative and unsorted cells” value [1] was “effective in killing the CD133 positive glioma stem cells”, the “combination effect (CI) with 5-FU” value (PBT-017 glioma cells; COH-SR4 <0.05 μM + 5-FU >250 μM) was “Additive effects” and the “combination effect (CI) with CPT-11” value (PBT-017 glioma cells; COH-SR4 <0.5 μM + CPT-11 <0.0625 μM) was “Synergism”. The “combination effect (CI) with SN-38” value (PBT-017 glioma cells; COH-SR4 <0.5 μM + SN-38 <0.0004 μM) was “Synergism”, the “combination effect (CI) with TMZ” value (PBT-017 glioma cells; COH-SR4 <0.5 μM + TMZ 25 μM) was “Synergism” and the “combination effect (CI) with TMZ” value (PBT-017 glioma cells; COH-SR4 <1.0 μM + TMZ >100 μM) was “Additive effects”. For the same compound, the “combination effect (CI) with SN-38” value (PBT-017 glioma cells; COH-SR4 >0.5 μM + SN-38 <0.001 μM) was “Additive effects”, the “combination effect (CI) with CPT-11” value (PBT-017 glioma cells; COH-SR4 >1.0 μM + CPT-11 <0.5 μM) was “Additive effects” and the IC50 (B16-F0; B16F0, 48 h, 48 hours) was ~14 µM. The IC50 (B16-F0; B16F0, 96 h, 96 hours) was ~5 µM, the “phosphorylation of p38 MAPK and ERK1/2” value (p38 MAPK, ERK1/2, JNK) was “dose- and time dependent increase in the levels of phosphorylation of p38 MAPK (T^180/Y^182) and ERK1/2 (T^202/Y^204)” and the colony formation (SK-Mel-2) was 48±6%. For the same compound, the “apoptosis (annexin V / propidium iodide)” value (A2058 cells) was “caused apoptosis in A2058 cells in a dose-dependent manner”, the “apoptosis (DNA fragmentation, TUNEL)” value ([2]; 5 μM) was “induced apoptosis” and the “apoptosis (DNA fragmentation, TUNEL)” value ([2]; 10 μM) was “induced apoptosis”.
